“And” between values parts separate entries of the source, which are not always exact repeats. Identical values can stand only once. Like-named read-outs stand apart in the source and are kept apart here. Ends that are not written are not given here.
Tests used:
[1] = test system: Staphylococcus aureus cells; assay: Membrane depolarization with membrane potential-sensitive dye diSC35; format: cell-based; conditions: 20 μg/ml of peptides, diSC35 release, FIG. 4
Method: FIG. 4 is a graphical representation showing the mechanism of action of peptides assessed by measuring the ability to depolarize Staphylococcus aureus cells using the membrane potential-sensitive dye diSC35. Either 20 μg/ml of peptides or, as a control, 29 μg/ml of gramicidin S (Gram S) were added. Lines are smoothed using a polynomial (to the 6th power) function.

[2] = test system: Pseudomonas aeruginosa strain H1001 fliC::luxCDABE; assay: Luminescence-based assay for the non-cleaved (bound) peptides on cellulose membranes; format: cell-based
How it was run: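 Peptides remained bound to cellulose spots, which were ethanol-washed and equilibrated in 100 mM Tris pH 7.3. Constitutively lux-expressing P. aeruginosa (OD600 0.35 culture diluted 1:25) added in 10 mM Tris-HCl pH 7.3, 20 mM glucose at 37° C. Luminescence (RLU) followed over 14 time points; peptides binned into six activity classes.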

[3] = test system: Pseudomonas aeruginosa strain H1001; assay: Assay for the cleaved (free, soluble) peptides from cellulose support, luminescence killing assay; format: cell-based; set-up: key: 1: Peptides showing stronger killing than Bac2A at a 4 to 8-fold higher dilution; Peptides showing stronger killing compared to that of Bac2A at a 4-fold higher dilution; 3: Peptides similar to Bac2A; 4: Peptides similar to Bac2A at the highest concentration but demonstrating weaker killing at a 2-fold dilution; 5: Peptides giving very weak or no killing at a 2-fold dilution; 6: Peptides with weak killing activity at the highest concentration
How it was run: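 Cellulose-synthesized peptides (amidated C-terminus, two β-alanines) cleaved by ammonia, released from punched spots 30 min at 37 °C, then serially diluted. P. aeruginosa H1001 (constitutive fliC::luxCDABE) overnight culture diluted 1:500 in LB or 100 mM Tris pH 7.3/20 mM glucose. Killing followed as time-dependent luminescence loss at 37 °C.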

Escherichia coli UB1005 = test system: Escherichia coli UB1005
Method: (§1) Minimal inhibitory concentration (MIC) determination. The MICs of the peptides were measured using a modified broth microdilution method in Mueller Hinton (MH) medium. Wu et al., J. Biol. Chem. 274: 29-35, 1999. Briefly, the peptides were dissolved and stored in glass vials. The assay was performed in sterile 96-well polypropylene microtitre plates were used. Serial dilutions of the peptides to be assayed were performed in 0.01% acetic acid (Fisher) containing 0.2% bovine serum albumin (Boehringer Mannheim GmbH) at 10× the desired final concentration. Ten microlitres of the 10× peptides were added to each well of a 96-well polypropylene plate containing 90 μl of MH media per well. Bacteria were added to the plate from an overnight culture at 2-7×10^5 colony forming units/ml and incubated over night at 37° C. The MIC was taken as the concentration at which no growth was observed.
(§2) Strains. For the killing assay a mini-Tn5-lux mutant in Pseudomonas aeruginosa H103 was used. The strain is called H1001 and contains a fliC::luxCDABE transcriptional fusion resulting in constitutive expression of luciferase. The bacterial strains used for the antimicrobial activity assays included Escherichia coli UB1005 (F-, nalA37, metB1), a wild-type Salmonella enterica ssp. Typhimurium (S. Typhimurium), wild-type Pseudomonas aeruginosa PAO1 strain H103, Enterococcus faecalis ATCC29212, Staphylococcus aureus ATCC25923, and a clinical isolate of Staphylococcus epidermidis obtained from Dr. D. Speert (Department of Medicine, University of British Columbia). Antifungal activity was tested using a lab isolate of Candida albicans obtained from Dr. B. Dill (Department of Microbiology and Immunology, University of British Columbia).
(§3) In addition, the parent peptide Bac2A was included in these studies as a standard. The minimal inhibitory concentrations (MIC) were determined for the important medical pathogens Pseudomonas aeruginosa, Escherichia coli, Salmonella typhimurium, Staphylococcus aureus, Staphylococcus epidermidis, Enterococcus faecaelis, and the yeast Candida albicans in Mueller-Hinton media.

[4] = test system: Pseudomonas aeruginosa PAO1 strain H103
Method: as §1, §2, §3

[5] = test system: Salmonella enterica ssp. Typhimurium; conditions: ssp. Typhimurium
Method: as §1, §2, §3

[6] = test system: Staphylococcus epidermidis
Method: as §1, §2, §3

[7] = test system: THP-1 macrophage-like cells; conditions: at 100 μg/ml
Method: THP1 cells were cultured in RPMI 1640 medium (supplemented with 10% (v/v) FCS, 1% L-glutamine, and 1 nM sodium pyruvate) in E-toxa-clean (Sigma-Aldrich, Oakville, Ontario, Canada)-washed, endotoxin-free bottle. THP1 cells were counted and 250 μl per well of 2-4×10^4 cells/ml were transferred into a 96 well tissue cultured treated polystyrene microtiterplate (Beckton Dickinson, Franklin Lakes, USA). In addition PMA was added (1.3 nM) and the cells were incubated for three days. After three days the medium were exchanged and Pseudomonas aeruginosa LPS and the peptides were added. The incubation time was four hours and the supernatant was frozen at −20° C. The cells were stained with Tryphan Blue for 2 minutes and washed with PBS two times. The viability of the cells was determined by counting the stained cells over the unstained.
Cytotoxicity was assessed using PMA-treated, human macrophage THP-1 cell line (FIG. 5).

[8] = test system: Staphylococcus aureus ATCC25923; conditions: ATCC25923
Method: as §1, §2, §3

[9] = test system: Enterococcus faecalis ATCC29212; conditions: ATCC29212
Method: as §1, §2, §3

Candida albicans = test system: Candida albicans
Method: as §1, §2, §3

**Q.** For “RLARIVVIRVAR-NH2 [Bac2A, reference compound]”, which “ability to depolarize the membrane of S. aureus” value [1] is on record?
**A.** The value was “able to depolarize the membrane of S. aureus very quickly”.

**Q.** And the “Luminescence at the given time in minutes: 0” value ([2]; cellulose-bound peptide, 0 min, listed as Bac001)?
**A.** The value was 4374 RLU and 4041 RLU and 4234 RLU and 4425 RLU and 4530 RLU.

**Q.** And the “Luminescence at the given time in minutes: 20” value ([2]; cellulose-bound peptide, 20 min, listed as Bac001)?
**A.** The value was 6729 RLU and 6352 RLU and 6373 RLU and 6323 RLU and 6411 RLU.

**Q.** What about the “Luminescence at the given time in minutes: 40” value ([2]; cellulose-bound peptide, 40 min, listed as Bac001) of the same substance?
**A.** The value was 2607 RLU and 2249 RLU and 1840 RLU and 2721 RLU.

**Q.** And the “Luminescence at the given time in minutes: 100” value ([2]; cellulose-bound peptide, 100 min, listed as Bac001)?
**A.** The value was 48 RLU and 35 RLU and 50 RLU and 53 RLU and 57 RLU.

**Q.** What about the “Activity Class bound” value ([2]; uncleaved cellulose-bound peptides) of the same substance?
**A.** The value was 3 (Peptides similar to Bac2A resulting in lux values of less than 500 after 240 min.).

**Q.** And the “inhibition of light production (killing) over 10 consecutive cycles” value ([2]; uncleaved peptide spots re-used 10 times, 40 h exposure to bacteria per cycle)?
**A.** Its value is “very similar inhibition of light production (killing) was observed”.

**Q.** And the “Soluble Class” value ([3]; Table 5, free peptides)?
**A.** Its value is 3.

**Q.** What about the “Activity Class Soluble” value ([3]; free (cleaved) peptides, killing relative to Bac2A) of the same substance?
**A.** Its value is 3.

**Q.** What about the MIC E. coli (Escherichia coli UB1005; Table 4a, Mueller-Hinton media, average of three measurements) of the same substance?
**A.** The MIC E. coli was 17 µg/mL.

**Q.** And the “MIC E. coli” value (Escherichia coli UB1005; Table 6)?
**A.** The value was 17 µg/mL.

**Q.** What about the “difference in MIC between high and low Mg2+ conditions” value ([4]; P. aeruginosa, Table 5) of the same substance?
**A.** The value was 4 fold.

**Q.** What about the “MIC P. aerug” value ([4]; PAO1) of the same substance?
**A.** Its value is 50 µg/mL.

**Q.** And the MIC P. aeruginosa ([4]; PAO1)?
**A.** The MIC P. aeruginosa was 50 µg/mL.

**Q.** And the “MIC P. aeruginosa Muller Hinton Media” value ([4]; PAO1)?
**A.** Its value is 54 µg/mL.

**Q.** And the “MIC P. aeruginosa With 10 μM Mg” value ([4]; PAO1)?
**A.** The value was 18 µg/mL.

**Q.** And the “MIC P. aeruginosa With 2 mM Mg” value ([4]; PAO1)?
**A.** Its value is 73 µg/mL.

**Q.** What about the “MIC S. Typhim.” value [5] of the same substance?
**A.** The value was 34 µg/mL.

**Q.** And the MIC S. typhimurium [5]?
**A.** The MIC S. typhimurium was 34 µg/mL.

**Q.** What about the “MIC S. epi.” value [6] of the same substance?
**A.** The value was 4 µg/mL.

**Q.** And the MIC S. epidermidis [6]?
**A.** Its MIC S. epidermidis is 4 µg/mL.

**Q.** Which “cytotoxic effect against a human macrophage cell line” value [7] does the source give for “RRAAVVLIVIRR-NH2 (C-terminus assumed) [Bac020]” here?
**A.** The value was “no cytotoxic effect”.

**Q.** And the MIC S. aureus [8]?
**A.** Its MIC S. aureus is 5 µg/mL.

**Q.** And the MIC P. aeruginosa ([4]; PAO1)?
**A.** Its MIC P. aeruginosa is 7 µg/mL.

**Q.** And the “MIC P. aeruginosa Muller Hinton Media” value ([4]; PAO1)?
**A.** Its value is 7 µg/mL.

**Q.** What about the “MIC P. aeruginosa With 10 μM Mg” value ([4]; PAO1) of the same substance?
**A.** Its value is 2 µg/mL.

**Q.** And the “MIC P. aeruginosa With 2 mM Mg” value ([4]; PAO1)?
**A.** Its value is 8 µg/mL.

**Q.** What about the “MIC against P. aeruginosa” value ([4]; PAO1) of the same substance?
**A.** The value was 7 µg/mL.

**Q.** And the MIC E. faecalis [9]?
**A.** Its MIC E. faecalis is 8 µg/mL.

**Q.** And the MIC C. albicans (Candida albicans)?
**A.** The MIC C. albicans was 11 µg/mL.

**Q.** What about the MIC S. typhimurium [5] of the same substance?
**A.** Its MIC S. typhimurium is 18 µg/mL.

**Q.** What about the MIC S. epidermidis [6] of the same substance?
**A.** The MIC S. epidermidis was 1.5 µg/mL.
